From ChEMBL document CHEMBL1148414, “Conformer- and alignment-independent model for predicting structurally diverse competitive CYP2C9 inhibitors” (J Med Chem, 2004) come the findings set out here.

Structures are written as SMILES. pKi: −log10 of the molar value.

Sequence of Cytochrome P450 2C9 (P11712 whole entry): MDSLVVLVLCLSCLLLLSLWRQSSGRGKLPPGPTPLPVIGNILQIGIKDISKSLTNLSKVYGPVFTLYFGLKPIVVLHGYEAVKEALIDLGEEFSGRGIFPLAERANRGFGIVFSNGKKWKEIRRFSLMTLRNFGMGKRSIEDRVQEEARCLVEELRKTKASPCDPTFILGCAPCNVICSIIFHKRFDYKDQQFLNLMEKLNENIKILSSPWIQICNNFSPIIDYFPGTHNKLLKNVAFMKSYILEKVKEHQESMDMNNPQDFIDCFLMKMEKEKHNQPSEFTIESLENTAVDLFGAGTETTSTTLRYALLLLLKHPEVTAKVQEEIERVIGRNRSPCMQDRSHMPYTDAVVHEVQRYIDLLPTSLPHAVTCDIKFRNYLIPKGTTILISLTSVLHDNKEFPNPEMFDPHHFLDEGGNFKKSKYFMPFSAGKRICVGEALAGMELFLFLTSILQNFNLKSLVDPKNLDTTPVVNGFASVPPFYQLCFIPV

The experiment concerns the target Cytochrome P450 2C9 (Homo sapiens, UniProt P11712). Briefly: Binding affinity towards cytochrome P450 2C9. It counts as ADME.
Regarding `COCCCOc1ccnc(C[S@+]([O-])c2nc3ccccc3[nH]2)c1C`, the pKi (usually the negative decadic logarithm of the Ki, by convention in mol/L) is 4.43.
`O=C1NC(=O)C2(N1)c1ccccc1-c1ccccc12` showed a negative logarithm of the Ki (pKi) of 3.90.
Turning to `CC(=O)C[C@H](c1ccccc1)C1C(=O)Oc2ccccc2C1O` (some centres undefined), the negative logarithm of the Ki (pKi) was 4.87.
Molecule `Nc1c(Oc2ccc(Cl)cc2Cl)ccc(Cl)c1S(=O)(=O)O` gave a pKi of 4.70.
Under `Clc1ccc(CO[C@H](Cn2ccnc2)c2ccc(Cl)cc2Cl)c(Cl)c1` stands 5.22.
Under `COc1ccnc(C[S@@+]([O-])c2nc3cc(OC(F)F)ccc3[nH]2)c1OC` stands 3.84.
For the molecule `COC(=O)c1ccc2nc([S@+]([O-])Cc3nccc(OC)c3OC)[nH]c2c1`, the pKi is 3.85.
Under `[O-][S@@+](Cc1cc(OCC2CC2)ccn1)c1nc2ccc(F)cc2[nH]1` stands 4.22; under `COC(=O)c1ccc2[nH]c([S@@+]([O-])Cc3nccc(OC)c3OC)nc2c1`, 4.19; under `[O-][S@+](Cc1cc(OCC2CC2)ccn1)c1nc2cc(F)ccc2[nH]1`, 4.03.
Under `CO[C@@]1(C)C[C@H](c2ccccc2)c2c(c3ccccc3oc2=O)O1` stands 4.80.
The molecule `COc1ccnc(C[S@+]([O-])c2nc3cc(OC(F)F)ccc3[nH]2)c1OC` showed a negative logarithm of the Ki (pKi) of 4.19.
The result for `Cc1nn(C)c(C)c1NC(=O)c1ccccc1NS(=O)(=O)c1cc(Cl)sc1Cl` reads 4.77; that for `CO[C@]1(C)C[C@H](c2ccccc2)C2C(=O)Oc3ccccc3C2O1` (some centres undefined), 4.80; that for `Clc1ccc(CO[C@@H](Cn2ccnc2)c2ccc(Cl)cc2Cl)c(Cl)c1` [(R)-MICONAZOLE], 5.22.
The result for `COCCCOc1ccnc(C[S@@+]([O-])c2nc3ccccc3[nH]2)c1C` [DEXRABEPRAZOLE] reads 4.44; that for `COCCCC/C(=N\OCCN)c1ccc(C(F)(F)F)cc1` [FLUVOXAMINE], 5.07.
Under `O=c1c(O)c(-c2ccc(O)cc2)oc2cc(O)cc(O)c12` [KAEMPFEROL] stands 5.22; under `COc1ccc2nc(S(=O)(=O)Cc3ncc(C)c(OC)c3C)[nH]c2c1` [OMEPRAZOLE SULFONE], 4.46.
`COc1ccc2[nH]c([S+]([O-])Cc3ncc(C)c(OC)c3C)nc2c1` (centres undefined) [OMEPRAZOLE]: the pKi was 4.35.
The result for `CCCCC1C(=O)N(c2ccccc2)N(c2ccccc2)C1=O` [PHENYLBUTAZONE] reads 4.72.
Turning to `CC(=O)[C@H]1CC[C@H]2[C@@H]3CCC4=CC(=O)CC[C@]4(C)[C@H]3CC[C@]12C` [PROGESTERONE], the pKi was 5.26.
Under `c1ccc2[nH]c(-c3cscn3)nc2c1` [THIABENDAZOLE] stands 3.61.
For `COc1cc(C(=O)NS(=O)(=O)c2ccccc2C)ccc1Cc1cn(C)c2ccc(NC(=O)OC3CCCC3)cc12` [ZAFIRLUKAST], the pKi was 5.60.
